Data: PubChem BioAssay (NCI)
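Compound exposure: 48 hours, 5 concentrations, 96-well plates. At the GI50, growth is halved. TGI: total growth inhibition.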

Assays:
Test in all cases: NCI tumour cell line growth inhibition, 48 h
[1] = tested on: SF-268 CNS
[2] = tested on: UACC-62 melanoma
[3] = tested on: DU-145 prostate
[4] = tested on: SN12C renal
[5] = tested on: RXF 393 renal
[6] = tested on: SF-539 CNS
[7] = tested on: SK-OV-3 ovarian
[8] = tested on: NCI-H226 lung
[9] = tested on: HOP-62 NSCLC
[10] = tested on: UO-31 renal
[11] = tested on: HOP-92 NSCLC
[12] = tested on: NCI/ADR-RES ovarian
[13] = tested on: LOX IMVI melanoma
[14] = tested on: SK-MEL-28 melanoma
[15] = tested on: HCT-116 colon
[16] = tested on: HL-60(TB) leukemia
[17] = tested on: CAKI-1 renal
[18] = tested on: HCT-15 colon
[19] = tested on: TK-10 renal
[20] = tested on: U251 CNS
[21] = tested on: SR leukemia
[22] = tested on: HS 578T breast
[23] = tested on: MDA-MB-231 breast
[24] = tested on: OVCAR-4 ovarian
[25] = tested on: MALME-3M melanoma
[26] = tested on: SK-MEL-2 melanoma
[27] = tested on: SF-295 CNS
[28] = tested on: IGROV1 ovarian
[29] = tested on: NCI-H23 lung
[30] = tested on: RPMI-8226 leukemia
[31] = tested on: OVCAR-3 ovarian
[32] = tested on: K-562 leukemia
[33] = tested on: T-47D breast
[34] = tested on: PC-3 prostate
[35] = tested on: A498 renal
[36] = tested on: MCF7 breast
[37] = tested on: HCC-2998 colon
[38] = tested on: COLO 205 colon
[39] = tested on: M14 melanoma
[40] = tested on: BT-549 breast
[41] = tested on: MOLT-4 leukemia
[42] = tested on: KM12 colon
[43] = tested on: NCI-H460 lung
[44] = tested on: SW-620 colon
[45] = tested on: SNB-19 CNS
[46] = tested on: MDA-MB-435
[47] = tested on: SNB-75 CNS
[48] = tested on: HT29 colon
[49] = tested on: 786-0 renal
[50] = tested on: OVCAR-5 ovarian
[51] = tested on: ACHN renal
[52] = tested on: SK-MEL-5 melanoma
[53] = tested on: OVCAR-8 ovarian
[54] = tested on: UACC-257 melanoma
[55] = tested on: NCI-H522 lung
[56] = tested on: CCRF-CEM leukemia
[57] = tested on: EKVX NSCLC
[58] = tested on: A549 NSCLC

## CCCCc1ccc(NS(=O)(=O)c2cc3c4c(c2)CCN4C(=O)CC3)cc1
[1]
  GI50: 30.3 µM
  TGI: > 100 µM
[2]
  GI50: 6.1 µM
  TGI: 65.2 µM
[3]
  GI50: 35.5 µM
  TGI: > 100 µM
[4]
  GI50: 34.6 µM
  TGI: > 100 µM
[5]
  GI50: 16.1 µM
  TGI: 62.5 µM
[6]
  GI50: 24.4 µM
  TGI: > 100 µM
[7]
  GI50: 34.9 µM
  TGI: > 100 µM
[8]
  GI50: 15.9 µM
  TGI: > 100 µM
[9]
  GI50: 28.5 µM
  TGI: 94.1 µM
[10]
  GI50: 12.8 µM
  TGI: > 100 µM
[11]
  GI50: 9.27 µM
  TGI: 36.4 µM
[12]
  GI50: 7.97 µM
  TGI: > 100 µM
[13]
  GI50: 35.1 µM
  TGI: > 100 µM
[14]
  GI50: 39.3 µM
  TGI: > 100 µM
[15]
  GI50: 17.5 µM
  TGI: > 100 µM
[16]
  GI50: 12.2 µM
  TGI: 58.3 µM
[17]
  GI50: 8.49 µM
  TGI: 78.5 µM
[18]
  GI50: 17 µM
  TGI: > 100 µM
[19]
  GI50: 15.1 µM
  TGI: 55 µM
[20]
  GI50: 23.5 µM
  TGI: > 100 µM
[21]
  GI50: 7.35 µM
  TGI: > 100 µM
[22]
  GI50: 15.2 µM
  TGI: 61.2 µM
[23]
  GI50: 16.1 µM
  TGI: > 100 µM
[24]
  GI50: 25.1 µM
  TGI: > 100 µM
[25]
  GI50: 35.4 µM
  TGI: > 100 µM
[26]
  GI50: 17.5 µM
  TGI: 63.6 µM
[27]
  GI50: 13.4 µM
  TGI: 93.8 µM
[28]
  GI50: 44.4 µM
  TGI: > 100 µM
[29]
  GI50: 10.6 µM
  TGI: > 100 µM
[30]
  GI50: 7.79 µM
  TGI: 57 µM
[31]
  GI50: 22.6 µM
  TGI: > 100 µM
[32]
  GI50: 9.3 µM
  TGI: > 100 µM
[33]
  GI50: 5.48 µM
  TGI: 72.1 µM
[34]
  GI50: 11.7 µM
  TGI: > 100 µM
[35]
  GI50: 5.82 µM
  TGI: 37.5 µM
[36]
  GI50: 9.94 µM
  TGI: > 100 µM
[37]
  GI50: 89.5 µM
  TGI: > 100 µM
[38]
  GI50: 25.1 µM
  TGI: 87.2 µM
[39]
  GI50: 19.8 µM
  TGI: > 100 µM
[40]
  GI50: 18 µM
  TGI: > 100 µM
[41]
  GI50: 11.2 µM
  TGI: 77.6 µM
[42]
  GI50: 26.9 µM
  TGI: > 100 µM
[43]
  GI50: 28.2 µM
  TGI: > 100 µM
[44]
  GI50: 33.5 µM
  TGI: > 100 µM
[45]
  GI50: 29.8 µM
  TGI: > 100 µM
[46]
  GI50: 16.9 µM
  TGI: > 100 µM
[47]
  GI50: 18.4 µM
  TGI: 78 µM
[48]
  GI50: 32.5 µM
  TGI: > 100 µM
[49]
  GI50: 17.9 µM
  TGI: 74.6 µM
[50]
  GI50: 35.8 µM
  TGI: > 100 µM
[51]
  GI50: 15.7 µM
  TGI: > 100 µM
[52]
  GI50: 8.25 µM
  TGI: 45.4 µM
[53]
  GI50: 19.7 µM
  TGI: > 100 µM

## CCC(=O)OCC1OC(n2cnc3c(=S)nc(N)[nH]c32)C(OC(=O)CC)C1OC(=O)CC (stereo not given)
[1]
  GI50: 3.95 µM
  TGI: > 100 µM
[54]
  GI50: 35.4 µM
  TGI: > 100 µM
[2]
  GI50: 2.29 µM
  TGI: 14.4 µM
[3]
  GI50: 2.51 µM
  TGI: 47.7 µM
[4]
  GI50: 12.4 µM
  TGI: > 100 µM
[5]
  GI50: 6.06 µM
  TGI: > 100 µM
[6]
  GI50: 4.88 µM
  TGI: 52.1 µM
[7]
  GI50: 2.36 µM
  TGI: 14.5 µM
[8]
  GI50: 2.62 µM
  TGI: > 100 µM
[9]
  GI50: 2.71 µM
  TGI: 67.3 µM
[10]
  GI50: 1.97 µM
  TGI: 54.2 µM
[11]
  GI50: 0.892 µM
  TGI: 20.9 µM
[55]
  GI50: 2.89 µM
  TGI: 18.6 µM
[12]
  GI50: 14.8 µM
  TGI: > 100 µM
[13]
  GI50: 2.17 µM
  TGI: > 100 µM
[14]
  GI50: 37.5 µM
  TGI: > 100 µM
[15]
  GI50: 4.25 µM
  TGI: > 100 µM
[56]
  GI50: 2.12 µM
  TGI: 28.2 µM
[17]
  GI50: 3.52 µM
  TGI: > 100 µM
[18]
  GI50: 9.39 µM
  TGI: > 100 µM
[19]
  GI50: 3.63 µM
  TGI: > 100 µM
[20]
  GI50: 21.5 µM
  TGI: > 100 µM
[21]
  GI50: 0.828 µM
  TGI: > 100 µM
[22]
  GI50: 23.8 µM
  TGI: > 100 µM
[23]
  GI50: 5.44 µM
  TGI: > 100 µM
[57]
  GI50: 10.7 µM
  TGI: > 100 µM
[24]
  GI50: 4.95 µM
  TGI: 81.3 µM
[25]
  GI50: 2.45 µM
  TGI: > 100 µM
[26]
  GI50: 2.89 µM
  TGI: 46.4 µM
[27]
  GI50: 5.27 µM
  TGI: > 100 µM
[28]
  GI50: 7.49 µM
  TGI: 44.5 µM
[29]
  GI50: 9.73 µM
  TGI: > 100 µM
[30]
  GI50: 3.79 µM
  TGI: 67.2 µM
[58]
  GI50: 71.8 µM
  TGI: > 100 µM
[31]
  GI50: 3.03 µM
  TGI: 17.7 µM
[32]
  GI50: 6.69 µM
  TGI: > 100 µM
[33]
  GI50: 3.17 µM
  TGI: 43.8 µM
[34]
  GI50: 5.2 µM
  TGI: > 100 µM
[35]
  GI50: 15.6 µM
  TGI: > 100 µM
[36]
  GI50: 3.57 µM
  TGI: 41.7 µM
[37]
  GI50: 15.2 µM
  TGI: 73.1 µM
[38]
  GI50: 3.57 µM
  TGI: 18.4 µM
[39]
  GI50: 2.33 µM
  TGI: 24.6 µM
[40]
  GI50: 5.42 µM
  TGI: > 100 µM
[41]
  GI50: 5.31 µM
  TGI: > 100 µM
[42]
  GI50: 6.06 µM
  TGI: 44.4 µM
[43]
  GI50: 6.62 µM
  TGI: > 100 µM
[44]
  GI50: 16.3 µM
  TGI: > 100 µM
[45]
  GI50: 80.9 µM
  TGI: > 100 µM
[46]
  GI50: 4.73 µM
  TGI: > 100 µM
[47]
  GI50: 3 µM
  TGI: 88.9 µM
[48]
  GI50: 14.7 µM
  TGI: > 100 µM
[49]
  GI50: 8.09 µM
  TGI: > 100 µM
[50]
  GI50: 9.15 µM
  TGI: > 100 µM
[51]
  GI50: 5.28 µM
  TGI: 93.1 µM
[52]
  GI50: 13.9 µM
  TGI: 34 µM
[53]
  GI50: 7.1 µM
  TGI: > 100 µM
